Experimental data reported in patent US9073916B2, “Prodrug forms of kinase inhibitors and their use in therapy” (AUCKLAND UNISERVICES LIMITED, priority 2009, dated 2015).
Like-named read-outs stand apart in the source and are kept apart here. Values belong to the molecule of their own block, whether it stands above or below them.

Key:
A431 cells = assay: Cellular growth inhibition (sulforhodamine B); conditions: for IC50: Homo sapiens
SKBR3 cells = assay: Cellular growth inhibition (sulforhodamine B); type: cell-based, Human; conditions: Table 3; for IC50: Homo sapiens, SK-BR-3
SW620 cells = assay: Cellular growth inhibition (sulforhodamine B); type: cell-based, Human; conditions: Table 3; for IC50: Homo sapiens, SW-620
erbB4 = erbB4 (Homo sapiens, UniProt Q15303); assay: Isolated enzyme inhibition (Invitrogen Z′-LYTE kinase assay); type: biochemical; conditions: 10 μM ATP, duplicate
Chain of erbB4 (Q15303 26-1308): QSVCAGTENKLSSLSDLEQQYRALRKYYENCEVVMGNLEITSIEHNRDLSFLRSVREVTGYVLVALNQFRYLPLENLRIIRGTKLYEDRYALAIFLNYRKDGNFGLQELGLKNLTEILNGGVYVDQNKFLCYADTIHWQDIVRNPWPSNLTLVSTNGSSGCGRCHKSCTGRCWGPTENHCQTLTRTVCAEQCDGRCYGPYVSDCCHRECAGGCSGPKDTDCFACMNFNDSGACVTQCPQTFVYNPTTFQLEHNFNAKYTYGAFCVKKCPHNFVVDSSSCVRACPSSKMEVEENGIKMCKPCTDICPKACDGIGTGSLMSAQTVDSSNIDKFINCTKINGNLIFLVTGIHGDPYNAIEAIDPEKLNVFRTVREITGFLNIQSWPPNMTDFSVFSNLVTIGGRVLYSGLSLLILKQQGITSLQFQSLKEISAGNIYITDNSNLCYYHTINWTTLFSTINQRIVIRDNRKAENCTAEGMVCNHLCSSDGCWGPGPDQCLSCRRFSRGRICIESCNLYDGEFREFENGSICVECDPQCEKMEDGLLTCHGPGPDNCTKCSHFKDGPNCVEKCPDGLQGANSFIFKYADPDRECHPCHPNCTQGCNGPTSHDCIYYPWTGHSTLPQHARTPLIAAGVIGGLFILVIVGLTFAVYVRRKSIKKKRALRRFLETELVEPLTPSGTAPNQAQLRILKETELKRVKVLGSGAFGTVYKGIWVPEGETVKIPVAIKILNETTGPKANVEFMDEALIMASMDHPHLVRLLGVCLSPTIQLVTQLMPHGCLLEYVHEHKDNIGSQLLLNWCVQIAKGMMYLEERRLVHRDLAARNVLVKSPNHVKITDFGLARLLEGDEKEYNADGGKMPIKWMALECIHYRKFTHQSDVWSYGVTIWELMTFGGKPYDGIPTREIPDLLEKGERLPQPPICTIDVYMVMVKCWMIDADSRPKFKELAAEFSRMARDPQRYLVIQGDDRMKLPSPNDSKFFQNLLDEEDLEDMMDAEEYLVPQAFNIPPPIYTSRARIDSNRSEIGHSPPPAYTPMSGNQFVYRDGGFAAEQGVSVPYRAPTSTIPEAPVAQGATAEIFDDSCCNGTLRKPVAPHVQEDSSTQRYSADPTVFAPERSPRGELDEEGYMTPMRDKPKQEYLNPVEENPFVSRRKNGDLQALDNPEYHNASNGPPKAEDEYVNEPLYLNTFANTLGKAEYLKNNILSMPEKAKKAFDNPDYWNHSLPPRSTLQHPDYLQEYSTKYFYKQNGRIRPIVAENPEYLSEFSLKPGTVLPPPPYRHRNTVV
Description: (§1) The compounds of Table 1 were tested for their ability to inhibit erbB1, erbB1^T790M, erbB2 and erbB4 in an isolated enzyme assay. This assay utilises synthetic FRET-capable peptide substrates. Phosphorylation of these substrates protects them from cleavage by a development reagent, leaving their FRET-capabilities intact. […] As a further consideration, for compounds capable of irreversible inhibition of an enzyme, the IC50 reflects both reversible and irreversible binding to the enzyme.

erbB2 = erbB2 (Homo sapiens, UniProt P04626); assay: as above; type: biochemical; conditions: 10 μM ATP, duplicate
Chain of erbB2 (P04626 23-1255): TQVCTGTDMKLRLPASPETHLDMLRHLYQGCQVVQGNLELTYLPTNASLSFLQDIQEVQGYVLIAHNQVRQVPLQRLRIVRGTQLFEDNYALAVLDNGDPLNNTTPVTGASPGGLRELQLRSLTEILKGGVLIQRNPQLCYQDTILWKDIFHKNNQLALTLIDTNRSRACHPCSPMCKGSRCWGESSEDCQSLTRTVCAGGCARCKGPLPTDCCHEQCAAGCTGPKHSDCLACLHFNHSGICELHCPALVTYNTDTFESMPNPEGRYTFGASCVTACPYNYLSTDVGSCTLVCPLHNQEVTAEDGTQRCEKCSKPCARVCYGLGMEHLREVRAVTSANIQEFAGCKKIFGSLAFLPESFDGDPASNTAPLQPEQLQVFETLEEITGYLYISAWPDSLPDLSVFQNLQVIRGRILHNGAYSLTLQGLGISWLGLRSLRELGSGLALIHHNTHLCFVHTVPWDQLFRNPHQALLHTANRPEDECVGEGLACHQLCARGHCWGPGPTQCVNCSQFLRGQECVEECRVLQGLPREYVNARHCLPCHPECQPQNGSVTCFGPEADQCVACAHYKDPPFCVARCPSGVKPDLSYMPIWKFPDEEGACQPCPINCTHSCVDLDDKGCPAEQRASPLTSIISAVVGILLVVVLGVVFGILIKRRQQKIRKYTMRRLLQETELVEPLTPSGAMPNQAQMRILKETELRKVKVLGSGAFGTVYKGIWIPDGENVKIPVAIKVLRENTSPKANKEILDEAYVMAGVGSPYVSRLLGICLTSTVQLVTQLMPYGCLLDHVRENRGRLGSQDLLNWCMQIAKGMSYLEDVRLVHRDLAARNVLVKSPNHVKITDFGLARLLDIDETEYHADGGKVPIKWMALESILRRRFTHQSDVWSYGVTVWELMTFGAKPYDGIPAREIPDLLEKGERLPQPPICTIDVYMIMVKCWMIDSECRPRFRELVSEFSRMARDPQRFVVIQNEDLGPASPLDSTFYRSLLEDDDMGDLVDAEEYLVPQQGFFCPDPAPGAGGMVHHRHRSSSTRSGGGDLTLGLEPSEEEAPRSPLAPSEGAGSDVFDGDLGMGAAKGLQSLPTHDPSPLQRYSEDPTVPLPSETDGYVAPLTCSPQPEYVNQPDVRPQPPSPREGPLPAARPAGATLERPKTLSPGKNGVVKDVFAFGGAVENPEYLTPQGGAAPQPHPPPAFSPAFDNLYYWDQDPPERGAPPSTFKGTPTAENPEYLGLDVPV
Description: as §1

SKOV3 cells = assay: Cellular growth inhibition (sulforhodamine B); type: cell-based, Human; conditions: Table 9; for IC50: Homo sapiens, SK-OV-3
H1975 cells = assay: Cellular growth inhibition (sulforhodamine B); type: cell-based, Human; conditions: for IC50: Homo sapiens, NCI-H1975
[1] = Chemical stability by HPLC; conditions: HPLC after 24 h at 37° C.
H1975 xenografts = assay: In vivo efficacy in H1975 xenografts; set-up: species or system mice; conditions: H1975 xenografts, q3dx4 at respective MTD, IP
Description: Specific pathogen-free homozygous female NIH-III nude mice (Charles River Laboratories, Wilmington, Mass.) were inoculated subcutaneously with a single cell suspension of H1975 cells (5×10^6 cells/100 μL; right flank). When H1975 tumour xenografts were established (typically 8-12 days) mice were randomized to treatment groups. All compounds were prepared in lactate buffer (pH4). Mice were dosed by intraperitoneal injection (0.01-0.03 ml/g) using the stated schedules and dose levels. For growth delay experiments mice were randomized to treatment and tumor volume [π(length×width^2)/6] and body weight were measured daily following treatment. […] Differences in RTV^4 were tested for statistical difference by Mann Whitney U test using SigmaStat v3.5.

erbB1 = erbB1 (Homo sapiens, UniProt P00533); assay: Inhibition of erbB1 autophosphorylation in EGF-stimulated intact A431 cells (Western blot)
Chain of erbB1 (P00533 25-1210): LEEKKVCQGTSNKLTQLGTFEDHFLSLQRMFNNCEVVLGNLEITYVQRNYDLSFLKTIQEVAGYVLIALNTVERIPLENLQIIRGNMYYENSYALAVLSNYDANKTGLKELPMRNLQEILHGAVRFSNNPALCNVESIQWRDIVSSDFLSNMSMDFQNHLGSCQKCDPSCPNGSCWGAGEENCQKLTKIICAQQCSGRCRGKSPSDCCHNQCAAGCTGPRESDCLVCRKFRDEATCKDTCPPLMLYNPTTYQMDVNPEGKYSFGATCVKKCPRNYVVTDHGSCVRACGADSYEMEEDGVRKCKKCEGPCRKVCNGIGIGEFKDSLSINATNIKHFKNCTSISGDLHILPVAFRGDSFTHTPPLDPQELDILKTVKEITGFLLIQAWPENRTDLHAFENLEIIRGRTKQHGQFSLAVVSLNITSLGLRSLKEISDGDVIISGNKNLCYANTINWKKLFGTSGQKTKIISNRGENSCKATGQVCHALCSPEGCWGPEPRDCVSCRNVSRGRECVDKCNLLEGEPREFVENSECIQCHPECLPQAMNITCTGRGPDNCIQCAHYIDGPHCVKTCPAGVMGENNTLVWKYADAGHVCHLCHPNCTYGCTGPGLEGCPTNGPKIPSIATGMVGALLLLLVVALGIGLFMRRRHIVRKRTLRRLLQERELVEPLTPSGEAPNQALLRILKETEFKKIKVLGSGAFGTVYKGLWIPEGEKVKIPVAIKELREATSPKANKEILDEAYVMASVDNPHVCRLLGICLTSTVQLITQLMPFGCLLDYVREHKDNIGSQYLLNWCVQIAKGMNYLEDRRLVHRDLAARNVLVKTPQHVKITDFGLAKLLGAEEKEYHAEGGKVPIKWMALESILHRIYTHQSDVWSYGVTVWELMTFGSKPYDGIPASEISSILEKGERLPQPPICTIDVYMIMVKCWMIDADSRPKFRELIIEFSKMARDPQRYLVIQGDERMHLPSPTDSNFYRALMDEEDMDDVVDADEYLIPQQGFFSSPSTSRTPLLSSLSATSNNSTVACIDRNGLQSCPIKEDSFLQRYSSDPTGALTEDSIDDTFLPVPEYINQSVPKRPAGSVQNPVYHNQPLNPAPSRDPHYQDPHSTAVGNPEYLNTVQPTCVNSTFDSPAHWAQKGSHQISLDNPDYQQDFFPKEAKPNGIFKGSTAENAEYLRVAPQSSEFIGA

[2] = Pulse radiolysis (E(1) and fragmentation rate); type: physicochemical; conditions: for kfrag. (fragmentation rate constant upon 1-electron reduction): benzyl-type radical formation; for E (1)/V (one-electron reduction potential): determined against methylviologen
Description: (§2) Pulse radiolysis was used to monitor the 1-electron reduction and stability of the compounds in real time. A linear accelerator delivering short pulses of high energy electrons (2-3 Gy in 200 ns of 4 MeV) equipped with a fast spectophotometric detection system was used. (Anderson et al, J. Phys. Chem. A, 101, 9704-9709, 1997). […] The rate of fragmentation was determined by analysing kinetic transients at wavelengths corresponding to the formation of the benzyl-type radical of the trigger moiety. (Bays et al, J. Am. Chem. Soc., 105, 320-324, 1983; Anderson et al, J. Phys. Chem. A, 101, 9704-9709, 1997).
The pulse radiolysis method, for example, measures the equilibrium constant between the radical anions of the prodrugs, formed upon their 1-electron reduction, and reference standards such as viologen and quinone compounds, from which data the E(1) values of the compounds can be calculated. (Meisel and Czapski. J. Phys. Chem., 1975, 79, 1503-1509.) The E(1) values of prodrugs 17-22, 140-145 were measured by the pulse radiolysis method and determined to range between −0.493V and −0.388V (Table 4).
The rate constants for fragmentation, kfrag, of the 1-electron reduced prodrugs can be measured using pulse radiolysis to observe the time-resolved formation of the absorption spectrum of the benzyl-type radical produced upon fragmentation of the radical anion. (Anderson et al, J. Phys. Chem. A, 1997, 101, 9704-9709.) The kfrag values of prodrugs 19, 20, 140, 141 and 143-145 were measured by pulse radiolysis and are presented in Table 4.
as §2, with “one-electron” for “1-electron”, “prodrug 42” for “the compounds”, “used.” for “used. (Anderson et al, J. Phys. Chem. A, 101, 9704-9709, 1997).”, “1997.)” for “1997).”

HT29 cells = assay: Cellular growth inhibition (sulforhodamine B); type: cell-based, Human; conditions: Table 7; for IC50: Homo sapiens, HT-29
[3] = Steady state radiolytic reduction by the CO2.− radical with HPLC-MS; type: physicochemical; conditions: for Detection of MNA (methyl nitroaromatic) / release of effector following 1-electron reduction: HPLC-MS; for % Loss of prodrug: HPLC-MS at 0.95 reducing equivalents; for release of effector following 1-electron reduction: steady state radiolysis
[4] = A-431, 24 h, read-out: Cellular Growth Inhibition IC50 A431 Oxic
[5] = A-431, read-out: Cellular Growth Inhibition IC50 A431 Anoxic
[6] = 24 hour exposure entirely oxic, read-out: Cellular Growth Inhibition IC50 SKBR3 Oxic
[7] = first 4 hours anoxic, read-out: Cellular Growth Inhibition IC50 SKBR3 Anoxic
[8] = 24 hour exposure entirely oxic, read-out: Cellular Growth Inhibition IC50 SW620 Oxic
[9] = first 4 hours anoxic, read-out: Cellular Growth Inhibition IC50 SW620 Anoxic
[10] = A-431, 4 h, read-out: Cellular Growth Inhibition IC50 A431 Anoxic
[11] = 24 hour exposure oxic, read-out: Cellular Growth Inhibition IC50 SKOV3 Oxic
[12] = first 4 hours anoxic, read-out: Cellular Growth Inhibition IC50 SKOV3 Anoxic
[13] = Table 9, 24 hour exposure oxic, read-out: Cellular Growth Inhibition IC50 H1975 Oxic
[14] = Table 9, first 4 hours anoxic, read-out: Cellular Growth Inhibition IC50 H1975 Anoxic
[15] = 24 hour exposure oxic, read-out: Cellular Growth Inhibition IC50 HT29 Oxic
[16] = initial 4 hours anoxic, read-out: Cellular Growth Inhibition IC50 HT29 Anoxic
[17] = Table 7, 24 hour exposure oxic, read-out: Cellular Growth Inhibition IC50 H1975 Oxic
[18] = Table 7, initial 4 hours anoxic, read-out: Cellular Growth Inhibition IC50 H1975 Anoxic

IC50 (A431 cells; [4]): 1260 nM
IC50 (A431 cells; [5]): 1300 nM
melting point: 180 to 182 °C
IC50 (SKBR3 cells; [6]): 3190 nM
IC50 (SKBR3 cells; [7]): 5510 nM
IC50 (SW620 cells; [8]): 18600 nM
IC50 (SW620 cells; [9]): 19600 nM
IC50 (erbB4): 113 nM
IC50 (erbB2): 74 nM
SMILES: CN(C)CCCC(=O)Nc1ccc2ncnc(Nc3cccc(Br)c3)c2c1 [Compound 16, N-[4-(3-bromoanilino)-6-quinazolinyl]-4-(dimethylamino)butanamide]
SKBR3 HCR (SKBR3 cells): 0.6 fold
SW620 HCR (SW620 cells): 0.9 fold

IC50 (A431 cells; [4]): 15 nM
IC50 (A431 cells; [5]): 9 nM
melting point: 179 to 181 °C
IC50 (SKBR3 cells; [6]): 28 nM
IC50 (SKBR3 cells; [7]): 27 nM
IC50 (SW620 cells; [8]): 2020 nM
IC50 (SW620 cells; [9]): 2460 nM
SMILES: COc1cc2ncnc(Nc3ccc(F)c(Cl)c3)c2cc1NC(=O)/C=C/CN(C)C [Compound 14, (2E)-N-[4-(3-chloro-4-fluoroanilino)-7-methoxy-6-quinazolinyl]-4-(dimethylamino)-2-butenamide]
A431 HCR (Hypoxic Cytotoxicity Ratio) (A431 cells; Table 3): 1.7 fold
SKBR3 HCR (SKBR3 cells): 1.1 fold
SW620 HCR (SW620 cells): 0.8 fold

SMILES: C#Cc1cccc(Nc2ncnc3cnc(NC(=O)/C=C/C[N+](C)(C)Cc4c([N+](=O)[O-])ncn4C)cc23)c1 [Compound 58, (2E)-4-{[4-(3-ethynylanilino)pyrido[3,4-d]pyrimidin-6-yl]amino}-N,N-dimethyl-N-[(1-methyl-4-nitro-1H-imidazol-5-yl)methyl]-4-oxo-2-buten-1-ammonium bromide]
IC50 (A431 cells; [10]): 35 nM
IC50 (A431 cells; [4]): 2000 nM
A431 Deact. (A431 cells; Table 9): 74 fold
A431 HCR (A431 cells; Table 9): 77.9 fold
IC50 (SKOV3 cells; [11]): 73100 nM
IC50 (SKOV3 cells; [12]): 2510 nM
SKOV3 Deact. (SKOV3 cells): 133 fold
SKOV3 HCR (SKOV3 cells): 38.5 fold
IC50 (H1975 cells; [13]): 98900 nM
IC50 (H1975 cells; [14]): 3810 nM
H1975 Deact. (H1975 cells; Table 9): 86 fold
H1975 HCR (H1975 cells; Table 9): 77.7 fold
Stability PBS (percentage parent remaining) [1]: 78%
Stability Water (percentage parent remaining) [1]: 98%
Stability α-MEM + FCS (5%) (percentage parent remaining) [1]: 61%
tumour growth inhibition (TGI) (H1975 xenografts): 171%
solubility (physchem; aqueous buffer): > 1280 µM
solubility (physchem; water): > 1280 µM
IC50 (erbB1): 513 nM
Deact. erbB1 (fold reduction in cellular inhibition relative to the parent kinase inhibitor) (erbB1; Table 8, A431 cells): 64 fold

IC50 (A431 cells; [4]): 670 nM
IC50 (A431 cells; [5]): 25 nM
E (1)/V (one-electron reduction potential) [2]: −0.427 V
melting point: 188 °C (dec.)
IC50 (SKBR3 cells; [6]): 2470 nM
IC50 (SKBR3 cells; [7]): 68 nM
IC50 (SW620 cells; [8]): 101000 nM
IC50 (SW620 cells; [9]): 13800 nM
IC50 (erbB1): 1200 nM
Deact. (fold reduction in cellular erbB1 inhibition relative to the parent kinase inhibitor) (erbB1; Table 2, A431 cells): 27 fold
SMILES: Cn1cnc([N+](=O)[O-])c1C[N+]1(C/C=C/C(=O)Nc2ccc3ncnc(Nc4cccc(Br)c4)c3c2)CCCCC1.[Br-] [Compound 23, 1-((2E)-4-{[4-(3-bromoanilino)-6-quinazolinyl]amino}-4-oxo-2-butenyl)-1-[(1-methyl-4-nitro-1H-imidazol-5-yl)methyl]piperidinium bromide]
A431 Deact. (fold reduction in oxic growth inhibition relative to parent kinase inhibitor) (A431 cells; Table 3): 65 fold
A431 HCR (Hypoxic Cytotoxicity Ratio) (A431 cells; Table 3): 26.9 fold
kfrag. (fragmentation rate constant upon 1-electron reduction) [2]: 420 ± 60 s⁻¹
SKBR3 Deact. (SKBR3 cells): 56 fold
SKBR3 HCR (SKBR3 cells): 36.1 fold
SW620 Deact. (SW620 cells): 27 fold
SW620 HCR (SW620 cells): 7.3 fold

IC50 (A431 cells; [10]): 1000 nM
IC50 (A431 cells; [4]): 42800 nM
E (1)/V (one-electron reduction potential) [2]: −0.465 V
melting point: 176 to 178 °C
IC50 (HT29 cells; [15]): 7800 nM
IC50 (HT29 cells; [16]): 1500 nM
Detection of MNA (methyl nitroaromatic) [3]: Yes
% Loss of prodrug [3]: 69%
IC50 (H1975 cells; [17]): 17900 nM
IC50 (H1975 cells; [18]): 2000 nM
SMILES: Cn1cnc([N+](=O)[O-])c1C[N+]1(CCOc2ccc(Nc3ncc4cc(-c5c(Cl)cccc5Cl)c(=O)n(C)c4n3)cc2)CCCCC1.[Br-] [Compound 143, 1-[2-(4-{[6-(2,6-dichlorophenyl)-8-methyl-7-oxo-7,8-dihydropyrido[2,3-d]pyrimidin-2-yl]amino}phenoxy)ethyl]-1-[(1-methyl-4-nitro-1H-imidazol-5-yl)methyl]piperidinium bromide]
A431 HCR (A431 cells; Table 7): 43 fold
kfrag. (fragmentation rate constant upon 1-electron reduction) [2]: 170 ± 20 s⁻¹
HT29 HCR (HT29 cells): 5 fold
release of effector following 1-electron reduction [3]: released their respective effector compounds
H1975 HCR (H1975 cells; Table 7): 9 fold

IC50 (A431 cells; [10]): 17 nM
IC50 (A431 cells; [4]): 27 nM
melting point: 163 to 166 °C
IC50 (SKOV3 cells; [11]): 550 nM
IC50 (SKOV3 cells; [12]): 740 nM
IC50 (H1975 cells; [13]): 1150 nM
IC50 (H1975 cells; [14]): 1120 nM
IC50 (erbB1): 8 nM
SMILES: C#Cc1cccc(Nc2ncnc3cnc(NC(=O)/C=C/CN(C)C)cc23)c1 [Compound 171, (2E)-4-(dimethylamino)-N-[4-(3-ethynylanilino)pyrido[3,4-d]pyrimidin-6-yl]-2-butenamide]
A431 HCR (A431 cells; Table 9): 1.7 fold
SKOV3 HCR (SKOV3 cells): 0.8 fold
H1975 HCR (H1975 cells; Table 9): 1.1 fold

IC50 (A431 cells; [10]): > 100000 nM
IC50 (A431 cells; [4]): 555000 nM
E (1)/V (one-electron reduction potential) [2]: −0.471 V
melting point: 252 °C (dec.)
IC50 (HT29 cells; [15]): 154000 nM
IC50 (HT29 cells; [16]): 119000 nM
Detection of MNA (methyl nitroaromatic) [3]: No
% Loss of prodrug [3]: 8%
IC50 (H1975 cells; [17]): 216000 nM
IC50 (H1975 cells; [18]): > 100000 nM
SMILES: Cn1cnc([N+](=O)[O-])c1C[n+]1ccc(Nc2ncc3cc(-c4c(Cl)cccc4Cl)c(=O)n(C)c3n2)cc1.[Br-] [Compound 142, 4-{[6-(2,6-dichlorophenyl)-8-methyl-7-oxo-7,8-dihydropyrido[2,3-d]pyrimidin-2-yl]amino}-1-[(1-methyl-4-nitro-1H-imidazol-5-yl)methyl]pyridinium bromide]
A431 HCR (A431 cells; Table 7): <6 fold
HT29 HCR (HT29 cells): 1 fold
release of effector following 1-electron reduction [3]: did not release their respective effector compounds
H1975 HCR (H1975 cells; Table 7): <3 fold
